Laboratory results taken from patent US9073918B2, “Pyrazolo[4,3-b]pyridine-7-amine inhibitors of ALK5” (Takeda Pharmaceutical Company Limited, priority 2010, dated 2015).
pIC50: −log10 of the molar value.

How the values were obtained:
[1] = target: T1, TGF-β R1 ALK5 (Homo sapiens, UniProt P36897); test: In vitro inhibition of ALK5 (LanthaScreen activity assay, TR-FRET); assay type: biochemical
T1 construct: purchased Invitrogen PV5837
T1 sequence (P36897 34-503): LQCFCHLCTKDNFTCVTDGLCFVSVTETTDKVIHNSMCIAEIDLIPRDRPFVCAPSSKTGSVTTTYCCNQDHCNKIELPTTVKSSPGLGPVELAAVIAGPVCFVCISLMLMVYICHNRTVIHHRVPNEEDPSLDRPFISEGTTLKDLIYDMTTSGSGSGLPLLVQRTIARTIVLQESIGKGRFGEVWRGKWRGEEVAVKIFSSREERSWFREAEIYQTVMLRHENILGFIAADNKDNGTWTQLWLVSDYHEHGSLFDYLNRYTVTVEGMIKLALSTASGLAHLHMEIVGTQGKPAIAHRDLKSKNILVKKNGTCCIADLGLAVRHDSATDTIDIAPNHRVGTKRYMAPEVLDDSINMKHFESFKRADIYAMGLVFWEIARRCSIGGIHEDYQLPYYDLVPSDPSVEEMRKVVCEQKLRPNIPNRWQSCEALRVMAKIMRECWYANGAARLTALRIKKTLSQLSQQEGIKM
Experimental: Test compounds were screened for TGF-β R1 ALK5 inhibition by use of a LanthaScreen™ activity assay (PV5837 Invitrogen, Invitrogen Corp. Madison, Wis.).
In brief, the assay procedure was as follows:
Solutions of test compounds were prepared in DMSO and diluted two-fold serially.
Assays were incubated for 90 minutes at room temperature and then quenched by the addition of 60 mM EDTA and 8 nM Terbium labeled anti-pSMAD3 Antibody (M4337 from Invitrogen) giving a final concentration of 15 mM EDTA and 2 nM Terbium labeled anti-pSMAD3 Antibody. Phosphorylated peptide product was quantified by measuring an increase in TR-FRET on a BMG LABTECH PHERA star plus. Response is defined as the ratio of Channel A/Channel B. The response of a blank (uninhibited) using vehicle alone is also determined. Enzyme activity was defined as the response of uninhibited enzyme activity minus the response of assays containing no enzyme. The percent inhibition of ALK5 at a given compound concentration is defined as: 100%×[1−(response compound/response blank)]
where response compound is defined as the enzyme activity in the presence of test compound and response blank is defined as the uninhibited enzyme activity. The pIC50 value (negative log of the molar concentration of the compound that produces 50% inhibition) of a test compound is calculated by non-linear least squares curve fitting of the equation: Percent Inhibition=100%/(1+(10−pIC50/10 log [I])).
Where inhibition was measured in multiple experiments the value in Table 1 is an average. N.T. means not tested.

[2] = target: T2, cellular TGF-β R1 ALK5 (Homo sapiens, UniProt P36897); test: Cellular inhibition of ALK5 (CellSensor SBE-bla HEK 293T beta-lactamase reporter); assay type: cell-based; conditions: cellular inhibition of ALK5, SBE-bla HEK 293T cells, TGFb-1 stimulated 5 hours; average where measured in multiple experiments
T2 construct: host or cells: CellSensor SBE-bla HEK 293T
T2 sequence (P36897 34-503): T1 sequence (P36897 34-503)
Source text: Test compounds were screened for cellular TGF-β R1 ALK5 inhibition by use of a CellSensor® SBE-bla HEK 293T (K1550, Invitrogen Corp. Madison, Wis.) cell line. The CellSensor® SBE-bla HEK 293T cell line contains a beta-lactamase reporter gene under control of the SBE response element stably integrated into HEK 293T cells. The SBE response element is a DNA region that binds activated SMADs which results from the binding of TGF-β to, and subsequent activation of ALK5.
The assay procedure was as follows:
CellSensor® SBE-bla HEK 293T cell line were plated at 12,000 cells/well in 40 ul DMEM plus 5 ug/ml blasticidin into 384-well, black-wall, clear-bottom assay plate and incubated overnight.
The following day 5 uL of 10×, 2.5-fold serially diluted test compounds in DMSO were added into cells to a final compound concentration of 1× and DMSO concentration of 0.5%. Assay was incubated for 1 hour at 37° C., 5% CO2, 5 uL of 100 ng/mL TGFb-1 was then added to activate ALK5 and incubated for 5 hours at 37° C., 5% CO2, 10 uL of detector, LiveBLAzer FRET B/G substrate (CCF4-AM, Invitrogen Corp. Madison, Wis.) was added to cells and incubated for 2 hours at RT. Assay was measured using Spectramax, a bottom-read fluorescence plate reader, at excitation setting of 405 nm and emission settings of 460 nm and 530 nm.
Response is defined as the ratio of background corrected 460 nm emission values/background corrected 530 nm emission values. Cellular activity was defined as percent inhibition of uninhibited ALK5 activity (wells treated with DMSO+TGF-β). The percent inhibition of cellular ALK5 at a given compound concentration is defined as: 100%×[1−(response compound+TGF-β/response DMSO+TGF-β)] where response compound+TGF-β is defined as the activity in the presence of test compound and response DMSO+TGF-β is defined as the uninhibited cellular ALK5 activity. The pIC50 value (negative log of the molar concentration of the compound that produces 50% inhibition) of a test compound is calculated by non-linear least squares curve fitting. pIC50 values, the negative of the log of the IC50, are calculated by non-linear curve fitting of the compound concentrations and percent of inhibition to the standard pIC50 equation.
Where inhibition was measured in multiple experiments the value in Table 2 is an average. N.T. means not tested.

Row | SMILES | pIC50 [1] | pIC50 [2]
1 | OC[C@H](O)Cn1cc2nccc(Nc3ccnc(-c4cc(Cl)ccc4F)c3)c2n1 [Example 46, (R)-3-(7-(2-(5-chloro-2-fluorophenyl)pyridin-4-ylamino)-2H-pyrazolo[4,3-b]pyridin-2-yl)propane-1,2-diol] | 7.20 | 6.50
2 | Cc1cnc(-c2cc(Cl)ccc2F)cc1Nc1ccnc2cn[nH]c12 [Example 49, N-(2-(5-chloro-2-fluorophenyl)-5-methylpyridin-4-yl)-1H-pyrazolo[4,3-b]pyridin-7-amine] | 7.50 | 7.50
3 | Cc1cnc(-c2cc(Cl)ccc2F)cc1Nc1ccnc2cn(CC(N)=O)nc12 [Example 50, 2-(7-(2-(5-chloro-2-fluorophenyl)-5-methylpyridin-4-ylamino)-2H-pyrazolo[4,3-b]pyridin-2-yl)acetamide] | 7.80 | 7.90
4 | Cc1cnc(-c2cc(Cl)ccc2F)cc1Nc1ccnc2cnn(CC(N)=O)c12 [Example 51, 2-(7-(2-(5-chloro-2-fluorophenyl)-5-methylpyridin-4-ylamino)-1H-pyrazolo[4,3-b]pyridin-1-yl)acetamide] | 7.90 | 7.70
5 | CNC(=O)n1ncc2nccc(Nc3cc(-c4cc(Cl)ccc4F)ncc3C)c21 [Example 52, 7-(2-(5-chloro-2-fluorophenyl)-5-methylpyridin-4-ylamino)-N-methyl-1H-pyrazolo[4,3-b]pyridine-1-carboxamide] | 7.50 | 7.50
6 | CCNC(=O)n1ncc2nccc(Nc3cc(-c4cc(Cl)ccc4F)ncc3C)c21 [Example 53, 7-(2-(5-chloro-2-fluorophenyl)-5-methylpyridin-4-ylamino)-N-ethyl-1H-pyrazolo[4,3-b]pyridine-1-carboxamide] | 7.50 | 7.30
7 | Cc1cnc(-c2cc(Cl)ccc2F)cc1Nc1ccnc2cnn(C(=O)NC(C)C)c12 [Example 54, 7-(2-(5-chloro-2-fluorophenyl)-5-methylpyridin-4-ylamino)-N-isopropyl-1H-pyrazolo[4,3-b]pyridine-1-carboxamide] | 7.20 | 7.00
8 | CNC(=O)n1ncc2nccc(Nc3cc(C)nc(-c4cc(Cl)ccc4F)c3)c21 [Example 58, 7-(2-(5-chloro-2-fluorophenyl)-6-methylpyridin-4-ylamino)-N-methyl-1H-pyrazolo[4,3-b]pyridine-1-carboxamide] | 7.10 | 6.90
9 | Cc1ccc(F)c(-c2cc(Nc3ccnc4cnn(C)c34)ccn2)n1 [Example 65, N-(3′-fluoro-6′-methyl-2,2′-bipyridin-4-yl)-1-methyl-1H-pyrazolo[4,3-b]pyridin-7-amine] | 7.00 | 6.90
10 | Cc1ccc(F)c(-c2cc(Nc3ccnc4cn(C(C)C)nc34)ccn2)n1 [Example 68, N-(3′-fluoro-6′-methyl-2,2′-bipyridin-4-yl)-2-isopropyl-2H-pyrazolo[4,3-b]pyridin-7-amine] | 5.90 | 5.90
11 | Cc1ccc(F)c(-c2cc(Nc3ccnc4cn(C[C@H](O)CO)nc34)ccn2)n1 [Example 69, (S)-3-(7-(3′-fluoro-6′-methyl-2,2′-bipyridin-4-ylamino)-2H-pyrazolo[4,3-b]pyridin-2-yl)propane-1,2-diol] | 5.30 | 5.30
12 | Cc1ccc(F)c(-c2cc(Nc3ccnc4cnn(CC(C)(C)O)c34)ccn2)n1 [Example 70, 1-(7-(3′-fluoro-6′-methyl-2,2′-bipyridin-4-ylamino)-1H-pyrazolo[4,3-b]pyridin-1-yl)-2-methylpropan-2-ol] | 7.80 | 7.50
13 | Cc1ccc(F)c(-c2cc(Nc3ccnc4cnn(CCO)c34)ccn2)n1 [Example 71, 2-(7-(3′-fluoro-6′-methyl-2,2′-bipyridin-4-ylamino)-1H-pyrazolo[4,3-b]pyridin-1-yl)ethanol] | 7.30 | 7.20
14 | COCCn1ncc2nccc(Nc3ccnc(-c4nc(C)ccc4F)c3)c21 [Example 73, N-(3′-fluoro-6′-methyl-2,2′-bipyridin-4-yl)-1-(2-methoxyethyl)-1H-pyrazolo[4,3-b]pyridin-7-amine] | 7.80 | 7.20
15 | CNC(=O)n1ncc2nccc(Nc3cc(-c4cccc(C)n4)ncc3C)c21 [Example 81, 7-(5,6′-dimethyl-2,2′-bipyridin-4-ylamino)-N-methyl-1H-pyrazolo[4,3-b]pyridine-1-carboxamide] | 7.20 | 6.90

Continued by rising pIC50 [1], values first:

Row | pIC50 [1] | pIC50 [2] | SMILES
16 | 6.70 | 6.70 | Cn1cc2nccc(Nc3ccnc(-c4cccc(Cl)c4)c3)c2n1 [Example 48, N-(2-(3-chlorophenyl)pyridin-4-yl)-2-methyl-2H-pyrazolo[4,3-b]pyridin-7-amine]
17 | 6.90 | 6.90 | Cc1ccc(F)c(-c2cc(Nc3ccnc4cnn(C(C)C)c34)ccn2)n1 [Example 67, N-(3′-fluoro-6′-methyl-2,2′-bipyridin-4-yl)-1-isopropyl-1H-pyrazolo[4,3-b]pyridin-7-amine]
18 | 7.00 | 6.50 | CN(C)C(=O)n1ncc2nccc(Nc3ccnc(-c4cc(Cl)ccc4F)c3)c21 [Example 39, 7-(2-(5-chloro-2-fluorophenyl)pyridin-4-ylamino)-N,N-dimethyl-1H-pyrazolo[4,3-b]pyridine-1-carboxamide]
19 | 7.10 | 6.20 | Cc1cnc(-c2cc(Cl)ccc2F)cc1Nc1ccnc2cn(C(C)(C)C(N)=O)nc12 [Example 55, 2-(7-(2-(5-chloro-2-fluorophenyl)-5-methylpyridin-4-ylamino)-2H-pyrazolo[4,3-b]pyridin-2-yl)-2-methylpropanamide]
20 | 7.40 | 7.40 | Cc1ccc(F)c(-c2cc(Nc3ccnc4cn(C)nc34)ccn2)n1 [Example 66, N-(3′-fluoro-6′-methyl-2,2′-bipyridin-4-yl)-2-methyl-2H-pyrazolo[4,3-b]pyridin-7-amine]
21 | 7.50 | 6.30 | Cc1cc(Nc2ccnc3cnn(CC(N)=O)c23)cc(-c2cc(Cl)ccc2F)n1 [Example 60A, 2-(7-(2-(5-chloro-2-fluorophenyl)-6-methylpyridin-4-ylamino)-1H-pyrazolo[4,3-b]pyridin-1-yl)acetamide]
22 | 7.50 | 6.40 | CNC(=O)n1ncc2nccc(Nc3ccnc(-c4cc(Cl)c(F)cc4F)c3)c21 [Example 63, 7-(2-(5-chloro-2,4-difluorophenyl)pyridin-4-ylamino)-N-methyl-1H-pyrazolo[4,3-b]pyridine-1-carboxamide]
23 | 8.10 | 7.00 | NC(=O)Cn1cc2nccc(Nc3ccnc(-c4cc(Cl)ccc4F)c3)c2n1 [Example 43, 2-(7-(2-(5-chloro-2-fluorophenyl)pyridin-4-ylamino)-2H-pyrazolo[4,3-b]pyridin-2-yl)acetamide]
